Legend:
[1] = biological target: T1, CK1α (Homo sapiens, UniProt P48729+Q96SW2); assay: Western-blot assay of substrate protein degradation in hPBMCs, CK1α; assay type: cell-based; details: 24 hours of compound treatment, compounds tested at 50 nM and 500 nM (concentration of the table not stated)
T1 construct: endogenous in cells; host or cells: hPBMCs (Milecell Biotechnologies)

[2] = biological target: T2, IKZF1 (Homo sapiens, UniProt Q13422+Q96SW2); assay: Western-blot assay of substrate protein degradation in hPBMCs, IKZF1; assay type: cell-based; details: 24 hours of compound treatment, compounds tested at 50 nM and 500 nM (concentration of the table not stated)
T2 construct: endogenous in cells; host or cells: hPBMCs (Milecell Biotechnologies)
T2 sequence (Q13422 whole entry): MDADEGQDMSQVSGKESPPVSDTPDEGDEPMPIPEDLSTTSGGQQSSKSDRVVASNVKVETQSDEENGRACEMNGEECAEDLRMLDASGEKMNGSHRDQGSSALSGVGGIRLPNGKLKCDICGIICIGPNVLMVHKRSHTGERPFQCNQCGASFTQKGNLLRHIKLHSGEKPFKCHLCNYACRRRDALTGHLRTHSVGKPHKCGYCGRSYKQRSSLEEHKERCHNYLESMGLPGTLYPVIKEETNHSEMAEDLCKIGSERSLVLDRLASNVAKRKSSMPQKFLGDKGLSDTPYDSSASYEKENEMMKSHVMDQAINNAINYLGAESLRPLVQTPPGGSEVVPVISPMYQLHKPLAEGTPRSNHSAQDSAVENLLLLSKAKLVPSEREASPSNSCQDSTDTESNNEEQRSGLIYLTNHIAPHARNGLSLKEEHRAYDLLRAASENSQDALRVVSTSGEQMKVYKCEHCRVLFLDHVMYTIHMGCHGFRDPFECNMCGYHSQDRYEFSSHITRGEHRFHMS
T2 sequence (Q96SW2 whole entry): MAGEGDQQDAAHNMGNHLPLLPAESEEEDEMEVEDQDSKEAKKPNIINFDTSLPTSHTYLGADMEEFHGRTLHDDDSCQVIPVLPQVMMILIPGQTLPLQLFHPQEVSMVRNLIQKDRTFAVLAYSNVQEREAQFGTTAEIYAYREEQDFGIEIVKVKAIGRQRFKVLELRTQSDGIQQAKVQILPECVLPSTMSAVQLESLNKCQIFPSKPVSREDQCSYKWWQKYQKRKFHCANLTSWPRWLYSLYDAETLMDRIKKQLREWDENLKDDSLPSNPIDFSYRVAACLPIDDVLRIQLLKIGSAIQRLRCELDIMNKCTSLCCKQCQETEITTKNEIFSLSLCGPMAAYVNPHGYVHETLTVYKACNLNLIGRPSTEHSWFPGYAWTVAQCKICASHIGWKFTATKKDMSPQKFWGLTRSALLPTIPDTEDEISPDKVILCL
T2 sequence (Q16531 whole entry partner): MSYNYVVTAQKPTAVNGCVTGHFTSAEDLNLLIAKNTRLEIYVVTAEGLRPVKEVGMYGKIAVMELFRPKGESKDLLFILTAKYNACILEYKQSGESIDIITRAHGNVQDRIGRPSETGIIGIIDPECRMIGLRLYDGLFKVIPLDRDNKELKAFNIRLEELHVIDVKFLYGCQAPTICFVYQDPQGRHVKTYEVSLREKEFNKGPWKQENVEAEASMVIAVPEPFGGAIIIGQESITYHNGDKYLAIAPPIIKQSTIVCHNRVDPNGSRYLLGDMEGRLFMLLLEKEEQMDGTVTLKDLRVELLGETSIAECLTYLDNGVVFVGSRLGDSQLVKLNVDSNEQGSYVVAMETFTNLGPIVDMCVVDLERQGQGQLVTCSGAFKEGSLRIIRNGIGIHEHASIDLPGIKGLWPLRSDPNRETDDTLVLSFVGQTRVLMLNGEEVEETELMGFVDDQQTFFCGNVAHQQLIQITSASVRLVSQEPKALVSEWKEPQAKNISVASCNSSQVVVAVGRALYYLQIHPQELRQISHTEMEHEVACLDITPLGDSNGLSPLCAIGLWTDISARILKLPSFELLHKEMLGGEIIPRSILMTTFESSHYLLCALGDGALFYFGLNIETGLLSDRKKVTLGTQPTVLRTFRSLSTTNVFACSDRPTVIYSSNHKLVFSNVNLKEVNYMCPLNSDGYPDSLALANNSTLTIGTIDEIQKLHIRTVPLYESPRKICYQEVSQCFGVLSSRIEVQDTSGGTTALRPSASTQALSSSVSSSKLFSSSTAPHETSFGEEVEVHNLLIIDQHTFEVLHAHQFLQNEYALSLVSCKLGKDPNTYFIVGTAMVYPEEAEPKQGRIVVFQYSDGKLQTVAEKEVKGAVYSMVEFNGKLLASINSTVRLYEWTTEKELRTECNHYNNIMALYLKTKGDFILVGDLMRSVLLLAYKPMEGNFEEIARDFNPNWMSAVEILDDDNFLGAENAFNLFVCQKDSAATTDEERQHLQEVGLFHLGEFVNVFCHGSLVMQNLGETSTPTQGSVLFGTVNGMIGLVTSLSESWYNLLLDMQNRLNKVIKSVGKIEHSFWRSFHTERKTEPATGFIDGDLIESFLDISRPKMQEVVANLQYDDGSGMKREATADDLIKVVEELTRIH

[3] = biological target: T3, WEE1 (Homo sapiens, UniProt P30291+Q96SW2); assay: Western-blot assay of substrate protein degradation in hPBMCs, WEE1; assay type: cell-based; details: 24 hours of compound treatment, compounds tested at 50 nM and 500 nM (concentration of the table not stated)
T3 construct: endogenous in cells; host or cells: hPBMCs (Milecell Biotechnologies)
T3 sequence (P30291 whole entry): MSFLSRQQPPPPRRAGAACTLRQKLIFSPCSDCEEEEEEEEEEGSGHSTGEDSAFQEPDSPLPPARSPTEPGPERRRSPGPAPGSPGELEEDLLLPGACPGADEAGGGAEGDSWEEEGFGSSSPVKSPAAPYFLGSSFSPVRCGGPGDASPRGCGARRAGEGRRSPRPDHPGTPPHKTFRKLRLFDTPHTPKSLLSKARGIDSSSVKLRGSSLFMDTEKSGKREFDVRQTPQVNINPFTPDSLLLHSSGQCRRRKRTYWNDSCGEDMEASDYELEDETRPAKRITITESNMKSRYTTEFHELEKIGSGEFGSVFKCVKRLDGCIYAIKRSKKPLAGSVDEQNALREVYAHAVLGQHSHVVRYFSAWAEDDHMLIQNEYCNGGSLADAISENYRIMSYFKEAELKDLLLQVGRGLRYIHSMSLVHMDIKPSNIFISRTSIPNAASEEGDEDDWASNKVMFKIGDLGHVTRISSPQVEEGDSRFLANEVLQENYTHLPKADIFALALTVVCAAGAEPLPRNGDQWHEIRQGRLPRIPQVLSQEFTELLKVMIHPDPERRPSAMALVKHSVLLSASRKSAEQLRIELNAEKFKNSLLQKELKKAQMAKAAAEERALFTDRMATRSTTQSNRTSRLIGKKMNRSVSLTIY
T3 sequence (Q96SW2 whole entry): as the sequence (Q96SW2 whole entry) above
T3 sequence (Q16531 whole entry partner): as the sequence (Q16531 whole entry partner) above

[4] = biological target: T4, human Cereblon WT GST-tagged protein (Homo sapiens, UniProt Q96SW2); assay: CRBN-binding affinity by HTRF (CEREBLON BINDING kit); details: HTRF inhibitory activity, CEREBLON BINDING kit; read-out: HTRF IC50
T4 construct: purchased CISBIO 64BDCRBNPEH
T4 sequence (Q96SW2 whole entry): as the sequence (Q96SW2 whole entry) above

[5] = biological target: T5, IKZF2 (Homo sapiens, UniProt Q96SW2+Q9UKS7); assay: Western-blot assay of substrate protein degradation in hPBMCs, IKZF2; assay type: cell-based; details: 24 hours of compound treatment, compounds tested at 50 nM and 500 nM (concentration of the table not stated)
T5 construct: endogenous in cells; host or cells: hPBMCs (Milecell Biotechnologies)
T5 sequence (Q9UKS7 whole entry): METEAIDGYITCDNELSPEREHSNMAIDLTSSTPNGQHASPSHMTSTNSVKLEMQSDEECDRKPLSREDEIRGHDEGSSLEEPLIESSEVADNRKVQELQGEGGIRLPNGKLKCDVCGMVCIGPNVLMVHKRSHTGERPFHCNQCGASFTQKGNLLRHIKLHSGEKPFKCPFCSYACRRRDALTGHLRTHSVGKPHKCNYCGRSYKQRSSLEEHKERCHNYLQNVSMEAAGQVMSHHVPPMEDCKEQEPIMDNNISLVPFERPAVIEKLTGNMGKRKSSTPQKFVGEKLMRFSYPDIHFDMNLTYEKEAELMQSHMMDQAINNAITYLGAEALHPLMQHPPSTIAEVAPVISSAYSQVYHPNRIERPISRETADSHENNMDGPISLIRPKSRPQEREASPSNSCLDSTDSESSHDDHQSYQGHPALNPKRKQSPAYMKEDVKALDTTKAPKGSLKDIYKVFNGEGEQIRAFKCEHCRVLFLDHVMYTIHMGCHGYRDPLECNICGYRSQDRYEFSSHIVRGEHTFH
T5 sequence (Q96SW2 whole entry): as the sequence (Q96SW2 whole entry) above
T5 sequence (Q16531 whole entry partner): as the sequence (Q16531 whole entry partner) above

[6] = biological target: T6, GSPT1 (Homo sapiens, UniProt P15170+Q96SW2); assay: Western-blot assay of substrate protein degradation in hPBMCs, GSPT1; assay type: cell-based; details: 24 hours of compound treatment, compounds tested at 50 nM and 500 nM (concentration of the table not stated)
T6 construct: endogenous in cells; host or cells: hPBMCs (Milecell Biotechnologies)
T6 sequence (P15170 whole entry): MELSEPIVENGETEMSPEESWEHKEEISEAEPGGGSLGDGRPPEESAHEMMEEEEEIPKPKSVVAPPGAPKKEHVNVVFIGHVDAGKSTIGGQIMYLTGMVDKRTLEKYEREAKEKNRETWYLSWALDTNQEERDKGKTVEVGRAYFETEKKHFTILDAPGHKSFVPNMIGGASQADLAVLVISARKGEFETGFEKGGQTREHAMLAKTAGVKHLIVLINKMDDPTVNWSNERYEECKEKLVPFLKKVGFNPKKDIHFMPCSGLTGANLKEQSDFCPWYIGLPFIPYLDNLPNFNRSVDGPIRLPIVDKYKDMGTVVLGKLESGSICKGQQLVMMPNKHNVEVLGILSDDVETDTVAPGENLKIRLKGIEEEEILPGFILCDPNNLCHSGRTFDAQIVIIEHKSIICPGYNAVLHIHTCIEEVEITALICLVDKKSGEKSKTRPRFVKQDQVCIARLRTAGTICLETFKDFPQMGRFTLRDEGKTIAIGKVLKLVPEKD
T6 sequence (Q96SW2 whole entry): as the sequence (Q96SW2 whole entry) above
T6 sequence (Q16531 whole entry partner): as the sequence (Q16531 whole entry partner) above

[7] = biological target: T7, IKZF3 (Homo sapiens, UniProt Q96SW2+Q9UKT9); assay: Western-blot assay of substrate protein degradation in hPBMCs, IKZF3; assay type: cell-based; details: 24 hours of compound treatment, compounds tested at 50 nM and 500 nM (concentration of the table not stated)
T7 construct: endogenous in cells; host or cells: hPBMCs (Milecell Biotechnologies)
T7 sequence (Q9UKT9 whole entry): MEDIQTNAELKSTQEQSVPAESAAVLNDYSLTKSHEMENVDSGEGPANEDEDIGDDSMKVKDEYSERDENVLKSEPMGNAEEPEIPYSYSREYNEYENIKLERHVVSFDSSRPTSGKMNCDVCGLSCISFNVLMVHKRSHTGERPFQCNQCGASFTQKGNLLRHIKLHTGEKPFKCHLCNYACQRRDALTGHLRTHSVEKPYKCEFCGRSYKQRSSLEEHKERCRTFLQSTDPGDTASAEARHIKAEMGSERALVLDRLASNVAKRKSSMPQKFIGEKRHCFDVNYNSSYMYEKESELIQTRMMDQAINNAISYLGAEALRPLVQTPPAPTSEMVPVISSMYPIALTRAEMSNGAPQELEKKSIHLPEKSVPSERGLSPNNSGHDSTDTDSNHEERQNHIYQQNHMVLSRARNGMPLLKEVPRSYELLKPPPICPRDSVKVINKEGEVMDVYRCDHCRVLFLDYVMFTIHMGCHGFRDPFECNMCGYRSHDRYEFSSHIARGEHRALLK
T7 sequence (Q96SW2 whole entry): as the sequence (Q96SW2 whole entry) above
T7 sequence (Q16531 whole entry partner): as the sequence (Q16531 whole entry partner) above

SMILES	CK1a substrate protein remaining % [1]	IKZF 1 substrate protein remaining % [2]	Weel substrate protein remaining % [3]	IC50 [4] [nM]	IKZF2 substrate protein remaining % [5]	GSPT1 substrate protein remaining % [6]	IKZF3 substrate protein remaining % [7]
O=C1CCC(N2Cc3cc(CN4CCN(c5ccnc(O)c5F)CC4)ccc3C2=O)C(=O)N1 (centres unmarked) [GT-04929, 3-(5-((4-(3-fluoro-2-hydroxypyridin-4-yl)piperazin-1-yl)methyl)-1-oxoisoindolin-2-yl)piperidine-2,6-dione]	B (80%< substrate protein remaining %≤ 100%)	A (0% ≤ substrate protein remaining % ≤ 80%)	B (80%< substrate protein remaining %≤ 100%)	500 to 1000	B (80%< substrate protein remaining %≤ 100%)	A (0% ≤ substrate protein remaining % ≤ 80%)	B (80%< substrate protein remaining %≤ 100%)
O=C1CCC(N2Cc3cc(CN4CCC(c5ncc6ccsc6n5)CC4)ccc3C2=O)C(=O)N1 (centres unmarked) [GT-04933, 3-(1-oxo-5-((4-(thieno[2,3-d]pyrimidin-2-yl)piperidin-1-yl)methyl)isoindolin-2-yl)piperidine-2,6-dione]	A (0% ≤ substrate protein remaining % ≤ 80%)	A (0% ≤ substrate protein remaining % ≤ 80%)	A (0% ≤ substrate protein remaining % ≤ 80%)	500 to 1000	A (0% ≤ substrate protein remaining % ≤ 80%)	A (0% ≤ substrate protein remaining % ≤ 80%)	A (0% ≤ substrate protein remaining % ≤ 80%)
CCc1cnc(C2CCN(Cc3ccc4c(c3)CN(C3CCC(=O)NC3=O)C4=O)CC2)nc1 (centres unmarked) [GT-04936, 3-(5-((4-(5-ethylpyrimidin-2-yl)piperidin-1-yl)methyl)-1-oxoisoindolin-2-yl)piperidine-2,6-dione]	A (0% ≤ substrate protein remaining % ≤ 80%)	A (0% ≤ substrate protein remaining % ≤ 80%)	A (0% ≤ substrate protein remaining % ≤ 80%)	1000 to 1500	A (0% ≤ substrate protein remaining % ≤ 80%)	A (0% ≤ substrate protein remaining % ≤ 80%)	A (0% ≤ substrate protein remaining % ≤ 80%)
Cc1nc(C2CCN(Cc3ccc4c(c3)CN(C3CCC(=O)NC3=O)C4=O)CC2)c2c3c(sc2n1)CCCC3 (centres unmarked) [GT-04993, 3-(5-((4-(2-methyl-5,6,7,8-tetrahydrobenzo[4,5]thieno[2,3-d]pyrimidin-4-yl)piperidin-1-yl)methyl)-1-oxoisoindolin-2-yl)piperidine-2,6-dione]	A (0% ≤ substrate protein remaining % ≤ 80%)	A (0% ≤ substrate protein remaining % ≤ 80%)	A (0% ≤ substrate protein remaining % ≤ 80%)	< 500	A (0% ≤ substrate protein remaining % ≤ 80%)	A (0% ≤ substrate protein remaining % ≤ 80%)	A (0% ≤ substrate protein remaining % ≤ 80%)
O=C1CCC(N2Cc3cc(CN4CCC(c5ncnc6sc7c(c56)CCC7)CC4)ccc3C2=O)C(=O)N1 (centres unmarked) [GT-04994, 3-(5-((4-(6,7-dihydro-5H-cyclopenta[4,5]thieno[2,3-d]pyrimidin-4-yl)piperidin-1-yl)methyl)-1-oxoisoindolin-2-yl)piperidine-2,6-dione]	B (80%< substrate protein remaining %≤ 100%)	A (0% ≤ substrate protein remaining % ≤ 80%)	A (0% ≤ substrate protein remaining % ≤ 80%)	< 500	A (0% ≤ substrate protein remaining % ≤ 80%)	B (80%< substrate protein remaining %≤ 100%)	A (0% ≤ substrate protein remaining % ≤ 80%)
O=C1CCC(N2Cc3cc(CN4CCC(c5ncnc6scc(-c7ccccc7)c56)CC4)ccc3C2=O)C(=O)N1 (centres unmarked) [GT-04995, 3-(1-oxo-5-((4-(5-phenylthieno[2,3-d]pyrimidin-4-yl)piperidin-1-yl)methyl)isoindolin-2-yl)piperidine-2,6-dione]	B (80%< substrate protein remaining %≤ 100%)	A (0% ≤ substrate protein remaining % ≤ 80%)	A (0% ≤ substrate protein remaining % ≤ 80%)	< 500	A (0% ≤ substrate protein remaining % ≤ 80%)	B (80%< substrate protein remaining %≤ 100%)	A (0% ≤ substrate protein remaining % ≤ 80%)
O=C1CCC(N2Cc3cc(CN4CCN(c5ncnc6sc7c(c56)CCC7)CC4)ccc3C2=O)C(=O)N1 (centres unmarked) [GT-04996, 3-(5-((4-(6,7-dihydro-5H-cyclopenta[4,5]thieno[2,3-d]pyrimidin-4-yl)piperazin-1-yl)methyl)-1-oxoisoindolin-2-yl)piperidine-2,6-dione]	A (0% ≤ substrate protein remaining % ≤ 80%)	A (0% ≤ substrate protein remaining % ≤ 80%)	A (0% ≤ substrate protein remaining % ≤ 80%)	< 500	A (0% ≤ substrate protein remaining % ≤ 80%)	A (0% ≤ substrate protein remaining % ≤ 80%)	A (0% ≤ substrate protein remaining % ≤ 80%)
Cc1sc2ncnc(C3CCN(Cc4ccc5c(c4)CN(C4CCC(=O)NC4=O)C5=O)CC3)c2c1C (centres unmarked) [GT-05034, 3-(5-((4-(5,6-dimethylthieno[2,3-d]pyrimidin-4-yl)piperidin-1-yl)methyl)-1-oxoisoindolin-2-yl)piperidine-2,6-dione]	A (0% ≤ substrate protein remaining % ≤ 80%)	A (0% ≤ substrate protein remaining % ≤ 80%)	B (80%< substrate protein remaining %≤ 100%)	< 500	A (0% ≤ substrate protein remaining % ≤ 80%)	A (0% ≤ substrate protein remaining % ≤ 80%)	A (0% ≤ substrate protein remaining % ≤ 80%)
Cc1nc(C2=CCN(Cc3ccc4c(c3)CN(C3CCC(=O)NC3=O)C4=O)CC2)c2c(-c3ccccc3)csc2n1 (centres unmarked) [GT-05102, 3-(5-((4-(2-methyl-5-phenylthieno[2,3-d]pyrimidin-4-yl)-3,6-dihydropyridin-1(2H)-yl)methyl)-1-oxoisoindolin-2-yl)piperidine-2,6-dione]	B (80%< substrate protein remaining %≤ 100%)	A (0% ≤ substrate protein remaining % ≤ 80%)	A (0% ≤ substrate protein remaining % ≤ 80%)	< 500	A (0% ≤ substrate protein remaining % ≤ 80%)	A (0% ≤ substrate protein remaining % ≤ 80%)	B (80%< substrate protein remaining %≤ 100%)
Cc1nc(N2CCN(Cc3ccc4c(c3)CN(C3CCC(=O)NC3=O)C4=O)CC2)c2c3c(sc2n1)CCC3 (centres unmarked) [GT-05157, 3-(5-((4-(2-methyl-6,7-dihydro-5H-cyclopenta[4,5]thieno[2,3-d]pyrimidin-4-yl)piperazin-1-yl)methyl)-1-oxoisoindolin-2-yl)piperidine-2,6-dione]	A (0% ≤ substrate protein remaining % ≤ 80%)	A (0% ≤ substrate protein remaining % ≤ 80%)	B (80%< substrate protein remaining %≤ 100%)	< 500	A (0% ≤ substrate protein remaining % ≤ 80%)	A (0% ≤ substrate protein remaining % ≤ 80%)	A (0% ≤ substrate protein remaining % ≤ 80%)
Cc1nc(C2CCN(Cc3ccc4c(c3)CN(C3CCC(=O)NC3=O)C4=O)CC2)c2c(-c3ccccc3)csc2n1 (centres unmarked) [GT-05158, 3-(5-((4-(2-methyl-5-phenylthieno[2,3-d]pyrimidin-4-yl)piperidin-1-yl)methyl)-1-oxoisoindolin-2-yl)piperidine-2,6-dione]	B (80%< substrate protein remaining %≤ 100%)	B (80%< substrate protein remaining %≤ 100%)	B (80%< substrate protein remaining %≤ 100%)	< 500	A (0% ≤ substrate protein remaining % ≤ 80%)	A (0% ≤ substrate protein remaining % ≤ 80%)	A (0% ≤ substrate protein remaining % ≤ 80%)

Source: patent EP4745137A1 (Gluetacs Therapeutics (Shanghai) Co., Ltd., priority 2023, dated 2025)
